Data from BindingDB's records for doi:10.1016/j.bmcl.2015.05.100 (Eli Lilly, 2015).

Legend:
[1] = molecular target: Cyclin-dependent kinase 2 (Homo sapiens, UniProt P24941); experiment: Inhibition of CDK2 (unknown origin) using GST-fused pRb (792 to 928) as substrate preincubated for 2 mins followed by [gamma-32P]-ATP addition measured after 15 mins by beta plate counting analysis
[2] = molecular target: Cyclin-dependent kinase 4 (Homo sapiens, UniProt P11802); experiment: Inhibition of CDK4 (unknown origin) using GST-fused pRb (792 to 928) as substrate preincubated for 2 mins followed by [gamma-32P]-ATP addition measured after 15 mins by beta plate counting analysis
Sequence of Cyclin-dependent kinase 4 (P11802 whole entry, the tested form may be a part): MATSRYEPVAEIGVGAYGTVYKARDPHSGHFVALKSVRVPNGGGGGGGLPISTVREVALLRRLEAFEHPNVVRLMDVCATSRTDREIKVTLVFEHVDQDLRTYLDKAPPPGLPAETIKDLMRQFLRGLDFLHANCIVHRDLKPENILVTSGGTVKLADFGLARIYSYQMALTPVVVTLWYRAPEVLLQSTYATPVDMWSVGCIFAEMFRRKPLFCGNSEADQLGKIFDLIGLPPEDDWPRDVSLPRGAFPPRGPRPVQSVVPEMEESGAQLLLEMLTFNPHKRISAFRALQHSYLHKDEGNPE

SMILES | IC50 [1] | IC50 [2]
O=c1c(Br)cc2cnc(Nc3ccc(N4CCNCC4)cc3)nc2n1C1CCCC1 | 43 nM | 2 nM
Cc1c(Br)c(=O)n(C2CCCC2)c2nc(Nc3ccc(N4CCNCC4)cc3)ncc12 [6-bromo-8-cyclopentyl-5-methyl-2-{[4-(piperazin-1-yl)phenyl]amino}-7H,8H-pyrido[2,3-d]pyrimidin-7-one] | 439 nM | 
CC(=O)c1c(C)c2cnc(Nc3ccc(N4CCNCC4)cc3)nc2n(C2CCCC2)c1=O [8-cyclopentyl-6-acetyl-5-methyl-2-{[4-(piperazin-1-yl)phenyl]amino}-7H,8H-pyrido[2,3-d]pyrimidin-7-one] |  | 2 nM
